Experimental data reported in US20240174680A1, “CDK2 INHIBITORS AND METHODS OF USING THE SAME” (Cedilla Therapeutics, Inc., priority 2021, published 2024).

Experiments:
[1] = tested on: Kuramochi cells labeled with mApple-H2B; assay: IncuCyte cell proliferation assay; assay type: cell-based; settings: 72 hours
Protocol: IncuCyte® assay was used to measure the effect of disclosed compounds on cell proliferation. Fluorescent microscopy images of cells were taken immediately after compound treatment and 72 hours later. Image analysis software was used to obtain cell counts as a function of compound concentration. Kuramochi cells labeled with mApple-H2B were seeded on 384-well assay-ready plates. Plates were placed in an IncuCyte® (Sartorius) and scanned at 0 and 72 hours. IncuCyte® software was used to count the number of fluorescent nuclei in each well. The fold change in cell count from 0 to 72 hours in wells treated with increasing compounds concentrations (10 pts, 1/2 log dilution, 20 μM top concentration) was normalized to DMSO control wells. The normalized cell counts were fit with dose response curves and a […] was calculated.
Compounds with an ICp greater than 0.5 μM and less than or equal to 5.0 μM are designated as “B”.

Kuramochi cells = assay: BrdU cell proliferation assay (colorimetric ELISA); assay type: cell-based; settings: read-out: BrdU - KURAMOCHI.1: IC50
Protocol: A BrdU assay was used as a measure of proliferation based on the DNA replication process of proliferating cells. BrdU, a pyrimidine analog, is added to the cell culture and incorporated into the DNA of proliferating cells. The presence of the BrdU analog was then measured through a colorimetric ELISA. After fixation and permeabilization of cells, peroxidase-conjugated antibody recognizing BrdU is added and allowed to incubate, followed by thorough washing to remove unbound antibody. In order to quantify the amount of bound antibody, peroxidase substrate is added and produces a color that can be measured at 450 nm.
On day −1, Kuramochi cells (Sekisui XenoTech JCRB0098) were seeded at 2,000 cells/well in columns 2-12 of a 96 well plate (Corning, CLS3596) in 150 μL media and allowed to adhere overnight at 37 degree with 5% CO2.
On day 0, the source plate was prepared by adding 10 mM compounds and performing 3-fold serial dilutions for a 10-point dose response of each compound. Using a multichannel pipette, 2 μL of the contents of the source plate were stamped into an intermediate plate with 500 μL of RPMI 1640 Media, GlutaMAX Supplement (Life Technologies, 61870127) in each well of a Nunc 96 DeepWell™ plate, non-treated 96 DeepWell plate, 2 mL/well, sterile, natural, 60/cs (Sigma Z717274) and mixed thoroughly. 50 μL from each well of this intermediate plate were added to 4 wells of a 96-well plate with previously seeded Kuramochi cells.
On day 4, the plates were developed using the BrdU ELISA Cell Proliferation Assay according to manufacturer's instructions (Roche, 11647229001). Briefly, BrdU was diluted 1:100 in Gibco®, OptiMEM® and 20 μL/well was added, shaken for 10 minutes at 350 rpm, and then returned to the incubator for 1 hour. Following incubation, the medium was discarded, and the cells were fixed by adding 200 μL of Fix/Denature solution. The anti-BrdU peroxidase antibody was diluted 1:1000 in OptiMEM, added at 100 μL/well, and incubated while shaking (350 rpm) for one hour. Three washes with PBS were performed to remove any unbound antibody, followed by the addition of 100 μL of substrate solution to each well. 25 μL/well of 1M sulfuric acid solution was then added to halt the reaction, and plates were read out using an Envision spectrophotometer (Perkin Elmer) set to read 450 nm absorbance. Background absorbance values from empty wells were subtracted from all samples and then normalized to DMSO treated wells.

CDK2/Cyclin E1 = CDK2/Cyclin E1 (Homo sapiens, UniProt P24941); assay: CDK2/Cyclin E1 Caliper LabChip EZ Reader mobility shift assay; assay type: biochemical; design: purchased Eurofins 14-475; settings: read-out: Caliper Assay (CDK2/CCNE1): IC50
Method in brief: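 Substrate-to-product conversion of fluorescent peptide (1.5 μM final) read by capillary electrophoresis after 100 min reaction, EDTA-quenched. Enzyme (2.5 nM final) and ATP (100 μM final) were preincubated 30 min with inhibitor dilutions first. % activity vs concentration fitted four-parameter for IC50.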

Row | IC50 (CDK2/Cyclin E1) | SMILES | IC50 [1] | IC50 (Kuramochi cells)
1 | – | C[C@@H](OCC1CCOCC1)[C@H](NC(=O)[C@@H]1CN(C(=O)c2cncs2)CC12CN(C(=O)[C@H]1CC1(C)C)C2)C(=O)N1CCC(c2ccncc2)CC1 [I-442] | 5 to 20 µM | –
2 | – | COCC1CCCN(C(=O)[C@@H](NC(=O)[C@H]2CN(C(=O)c3cnn(Cc4ccccc4)c3)CC23CN(C(=O)[C@H]2CC2(C)C)C3)[C@@H](C)OCC2CCCCC2)C1 (some centres unmarked) [I-111] | 0.5 to 5 µM | ≤ 0.5 µM
3 | 0.01 to 0.1 µM | C[C@@H](OCC1CCC(F)(F)CC1)[C@H](NC(=O)[C@@H]1CN(C(=O)c2cnn(Cc3ccc(F)cc3)c2)CC12CN(C(=O)C1(C(F)(F)F)CC1)C2)C(=O)N1CCC(F)(F)CC1 [I-190A] | ≤ 0.5 µM | –
4 | – | CNC(=O)[C@@H](NC(=O)[C@@H]1CN(C(=O)c2cncs2)CC12CN(C(=O)[C@H]1CC1(C)C)C2)c1nnc(C2CCCCC2)o1 [I-429] | > 20 µM | > 10 µM
5 | – | C[C@@H](OCC1CCOCC1)[C@@H](COC(F)F)NC(=O)[C@@H]1CN(C(=O)c2cncs2)CC12CN(C(=O)[C@H]1CC1(C)C)C2 [I-441] | > 20 µM | –
6 | > 10 µM | CC(C)O[C@H]1C[C@@H](NC(=O)[C@@H]2CN(C(=O)c3cnn(Cc4ccccc4)c3)CC23CN(C(=O)[C@H]2CC2(C)C)C3)C1 [I-234] | – | > 10 µM
7 | – | C[C@@H](OCc1ccccc1)[C@H](NC(=O)C1CN(C(=O)c2cnn(Cc3ccccc3)c2)CC12CN(C(=O)C1CC1(C)C)C2)C(=O)NCCCCCN (some centres unmarked) [I-57] | – | > 10 µM
8 | > 10 µM | CNC(=O)[C@@H](NC(=O)[C@H]1CN(Cc2cnn(C)c2)CC12CN(C(=O)[C@H]1CC1(C)C)C2)[C@@H](C)OCc1ccccc1 [I-47B] | – | > 10 µM
9 | – | C[C@@H](OCC1CCC(F)(F)CC1)[C@H](NC(=O)C1CN(C(=O)c2cnn(Cc3ccc(F)cc3)c2)CC12CN(C(=O)C1(C(F)(F)F)CC1)C2)C(=O)N1CCC(F)(F)CC1 (single isomer, unassigned) [I-190B] | 5 to 20 µM | 0.5 to 5 µM
10 | – | C[C@@H](OCc1ccccc1)[C@H](NC(=O)C1CN(C(=O)c2cnn(Cc3ccccc3)c2)CC12CN(C(=O)C1CC1(C)C)C2)C(=O)NCCCCCNC(=O)OC(C)(C)C (some centres unmarked) [I-52] | 0.5 to 5 µM | 0.5 to 5 µM
11 | > 10 µM | CNC(=O)[C@@H](NC(=O)[C@@H]1CN(C(=O)c2cncs2)CC12CN(CC1CCOCC1)C2)[C@@H](C)OCC12CCC(CC1)OC2 [I-346] | > 20 µM | > 10 µM
